Test results published in patent publication US8685394B2, “Combination of anti-CTLA4 antibody with diverse therapeutic regimens for the synergistic treatment of proliferative diseases” (Bristol-Myers Squibb Company, priority 2008, dated 2014).
“Also recorded” adds a separate entry of the source. Where two headings read alike, the source gives them in different places.

Key:
tumor models = experiment: Antitumor activity in murine tumor models, model not stated (FIG. 6, 8, 9, 10; summary); format: in vivo; conditions: concurrent treatment
CT26 colon carcinoma [1] = experiment: CT26 colon carcinoma subcutaneous tumor model; format: in vivo, murine; conditions: for % TGI (Average) / CR / PR / T-C (1000 mm^3): CT26 s.c.; for % TGI (Average): doses and schedules of Table 4; for CR: mice with complete regression / mice in group; for PR: mice with partial regression / mice in group; for T-C (1000 mm^3): number of days to reach target tumor size 1000 mm^3
Experimental: (§1) All compounds were tested at their optimal dose and schedule. When used in combination, CTLA-4 mAb was initiated one day after the first dose of chemotherapy. Percent tumor growth inhibition and number of days to reach target tumor size were used to evaluate efficacy. Antitumor activity was scored as: complete regression (CR; non-palpable tumor for ≧2 assessments) or partial regression (PR; 50% reduction in tumor volume for ≧2 assessments).

M109 lung carcinoma [2] = experiment: M109 lung carcinoma subcutaneous tumor model; format: in vivo, murine; conditions: for CR / T-C (1000 mm^3) / PR / % TGI (Average): M109 s.c.; for CR: complete regression = non-palpable tumor for ≧2 assessments; for T-C (1000 mm^3): number of days to reach target tumor size 1000 mm^3, doses and schedules of Table 1; for PR: partial regression = 50% reduction in tumor volume for ≧2 assessments; for % TGI (Average): percent tumor growth inhibition, each treatment at dose (mg/kg) and schedule (study days) of Table 1
Experimental: as §1

SA1N fibrosarcoma [3] = experiment: SA1N fibrosarcoma subcutaneous tumor model; format: in vivo, murine; conditions: SA1N s.c.; for % TGI (Average D 20-48): average of days 20-48, doses and schedules of Table 3; for CR: mice with complete regression / mice in group; for PR: mice with partial regression / mice in group; for T-C (1000 mm^3): number of days to reach target tumor size 1000 mm^3
Experimental: as §1

M109 lung metastasis = experiment: M109 lung carcinoma model of experimental pulmonary metastasis; format: in vivo, murine; conditions: doses and schedules of Table 2, control vehicle 32
[4] = test system: immune cells in tumor-draining lymph nodes; experiment: Composition of immune cells in tumor-draining lymph nodes (FIG. 13); format: in vivo
in vivo cytotoxicity = conditions: FIG. 12
M109 lung carcinoma [5] = conditions: dasatinib with CTLA-4 mAb
CT26 colon carcinoma [6] = conditions: dasatinib 30 mg/kg, concurrent CTLA-4 mAb
STAT3 = conditions: Yu, H. et al., 2007; cited from earlier work
T-cell activation = conditions: Schade et al., 2007; cited from earlier work
T-cell function = conditions: in vitro; concentrations of 10-50 nM; inhibition of cytokine secretion and degranulation; Weischel et al., 2008; cited from earlier work
SA1N fibrosarcoma [7] = conditions: dasatinib 30 mg/kg daily or 5 days on/2 days off, concurrent CTLA-4 mAb
P815 mastocytoma = conditions: SPRYCEL 30 mg/kg P.O., anti-CTLA-4 mAb IP days 10, 14, 18
[8] = CT26 colon carcinoma, established tumors

4′-Demethylepipodophyllotoxin 9-[4,6-O-(R)-ethylidene-β-D-glucopyranoside], 4′-(dihydrogen phosphate) [Etoposide]
CTLA-4 blockade activity under concurrent chemotherapy (tumor models): not abolished
antitumor activity / combination effect, in words (CT26 colon carcinoma [1]; [8]): effective as single agents
% TGI (Average) (CT26 colon carcinoma [1]): 66%
CR (CT26 colon carcinoma [1]): 1/8
PR (CT26 colon carcinoma [1]): 0/8
T-C (1000 mm^3) (CT26 colon carcinoma [1]): 11
CR (M109 lung carcinoma [2]): 0
T-C (1000 mm^3) (M109 lung carcinoma [2]): 9
PR (M109 lung carcinoma [2]): 0
% TGI (Average) (M109 lung carcinoma [2]): 59%
antitumor activity / combination effect, in words (M109 lung carcinoma [2]; M109 subcutaneous tumor model): modestly sensitive
% TGI (Average D 20-48) (SA1N fibrosarcoma [3]): 88%
CR (SA1N fibrosarcoma [3]): 0/8
PR (SA1N fibrosarcoma [3]): 1/8
T-C (1000 mm^3) (SA1N fibrosarcoma [3]): 14
Median Survival Time (M109 lung metastasis): 34 days

Cl.Nc1ccn([C@@H]2O[C@H](CO)[C@@H](O)C2(F)F)c(=O)n1 (single isomer, unassigned) [Gemcitabine, 2′-deoxy-2′,2′-difluorocytidine monohydrochloride (β-isomer)]
composition of immune cells in tumor-draining lymph nodes [4]: modulates the composition of immune cells
in vivo cytotoxicity (in vivo cytotoxicity): promote in vivo cytotoxicity
CTLA-4 blockade activity under concurrent chemotherapy (tumor models): not abolished
antitumor activity / combination effect, in words (CT26 colon carcinoma [1]; [8]): effective as single agents
% TGI (Average) (CT26 colon carcinoma [1]): 102%
CR (CT26 colon carcinoma [1]): 2/8
PR (CT26 colon carcinoma [1]): 0/8
T-C (1000 mm^3) (CT26 colon carcinoma [1]): 12
CR (M109 lung carcinoma [2]): 0
T-C (1000 mm^3) (M109 lung carcinoma [2]): 2.2
PR (M109 lung carcinoma [2]): 0
% TGI (Average) (M109 lung carcinoma [2]): 32%
antitumor activity / combination effect, in words (M109 lung carcinoma [2]; M109 subcutaneous tumor model): modestly sensitive; also recorded: did not produce significant antitumor activity
antitumor activity / combination effect, in words (M109 lung carcinoma [2]; M109 subcutaneous tumor model, listed as Gem): modestly sensitive; also recorded: did not produce significant M109 antitumor activity
% TGI (Average D 20-48) (SA1N fibrosarcoma [3]): 68%
CR (SA1N fibrosarcoma [3]): 0/8
PR (SA1N fibrosarcoma [3]): 0/8
T-C (1000 mm^3) (SA1N fibrosarcoma [3]): 11
Median Survival Time (M109 lung metastasis): 42 days

Cc1nc(Nc2ncc(C(=O)Nc3c(C)cccc3Cl)s2)cc(N2CCN(CCO)CC2)n1 [dasatinib, N-(2-chloro-6-methylphenyl)-2-[[6-[4-(2-hydroxyethyl)-1-piperazinyl]-2-methyl-4-pyrimidinyl]amino]-5-thiazolecarboxamide]
antitumor activity / combination effect, in words (M109 lung carcinoma [5]): minimal activity
antitumor activity / combination effect, in words (CT26 colon carcinoma [6]): minimal activity
inhibition of STAT3 (STAT3): potent inhibition of STAT3
effect on T-cell activation (T-cell activation): blockade of T-cell activation
effect on T-cell function (T-cell function): inhibits T-cell function
antitumor activity / combination effect, in words (SA1N fibrosarcoma [7]): modest antitumor activity
antitumor activity / combination effect, in words (P815 mastocytoma): modest antitumor activity

CC(=O)O[C@H]1C(=O)[C@@]2(C)[C@H]([C@H](OC(=O)c3ccccc3)[C@]3(O)C[C@H](OC(=O)[C@H](O)[C@@H](NC(=O)c4ccccc4)c4ccccc4)C(C)=C1C3(C)C)[C@]1(OC(C)=O)CO[C@@H]1C[C@@H]2O [Paclitaxel, 5beta,20-Epoxy-1,2alpha,4,7beta,10beta,13alpha-hexahydroxytax-11-en-9-one 4,10-diacetate 2-benzoate 13-ester with (2R,3S)-N-benzoyl-3-phenylisoserine]
CTLA-4 blockade activity under concurrent chemotherapy (tumor models): not abolished
% TGI (Average) (CT26 colon carcinoma [1]): 0%
CR (CT26 colon carcinoma [1]): 0/8
PR (CT26 colon carcinoma [1]): 0/8
T-C (1000 mm^3) (CT26 colon carcinoma [1]): 0
antitumor activity / combination effect, in words (CT26 colon carcinoma [1]; mouse, in vivo): ineffective
CR (M109 lung carcinoma [2]): 0
T-C (1000 mm^3) (M109 lung carcinoma [2]): 5
PR (M109 lung carcinoma [2]): 0
% TGI (Average) (M109 lung carcinoma [2]): 45%
antitumor activity / combination effect, in words (M109 lung carcinoma [2]; mouse, in vivo, sc): modestly sensitive
% TGI (Average D 20-48) (SA1N fibrosarcoma [3]): 65%
CR (SA1N fibrosarcoma [3]): 0/8
PR (SA1N fibrosarcoma [3]): 0/8
T-C (1000 mm^3) (SA1N fibrosarcoma [3]): 13
Median Survival Time (M109 lung metastasis): 38 days
